Read-outs that look alike come from different tables or passages of the source.

Series [1] deals with EMT-6 murine mammary carcinoma cells. As to the kind of experiment: In vitro cytotoxicity (IC50 analysis), XTT assay. Type of series: cell-based. Conditions: Mus musculus, EMT-6 (mammary). On the procedure:
(§1) EMT-6 murine mammary carcinoma cells and LL/2 murine Lewis lung cell carcinoma cells were cultured in DMEM media (Invitrogen) with high glucose, supplemented with 10% FBS (Invitrogen), penicillin (100 U/ml) and streptomycin (100 μg/ml) (Invitrogen). The mouse mammary carcinoma cell line EMT-6 was a generous gift from Dr. David Stojdl at the CHEO Research Institute and Dr. Douglas Mahoney at the University of Ottawa. For plating, cells were released from the culture flask with trypsin (Invitrogen), resuspended at a concentration of 1×10^5 cell/mL, and 100 uL of cell suspension was added to the wells of 96 well polystyrene plate. The cells were maintained for 24 hours in culture (37° C., 5% CO2, humidified) before addition of particles. DTX solutions were made up in DMSO and diluted with media to form a 100 nM stock solution with 0.1% DMSO content. These DTX samples were 2× serially diluted with 0.1% DMSO media. Cellax particles were assayed for DTX content, and 10× serially diluted with media. The cultures were maintained for three days, at which time cell viability was assayed by the XTT assay. Briefly, a 1 mg/mL solution of XTT reagent (Sigma) in water was prepared, and phenazine (Sigma) was added just before analysis ([…]). The culture plates were incubated for two hours at 37° C., and absorbance of each well at 480 nm was then read. Wells treated with media (or 0.1% DMSO media) represent 100% viable cultures, and wells containing no cells represent background signal. In a parallel experiment, the DTX or Cellax-containing media were added to the EMT-6 and LL/2 cultures in four steps, with addition of ¼ the dose every 12 hours for two days. The data was analyzed in GraphPad Prism, and the IC50 for each system was calculated.

In series [2] the test system is LL/2 murine Lewis lung cell carcinoma cells. As to the kind of experiment: In vitro cytotoxicity (IC50 analysis), XTT assay. The class given is cell-based. To be noted: Mus musculus, LL/2 (lung). On the procedure: as §1
A general note: Tetrazolium dyes change colour on reduction, which living cells bring about.

Series [3] is described as follows: Maximum tolerated dose (MTD) study in healthy mice. Conditions: female, BALB/c, mouse, in vivo, iv; single i.v. dose, limit <5% body weight loss; read-out: MTD for docetaxel in mice. An excerpt:
(§2) Female BALB/c and C57/BL6 mice (aged 6 weeks, 18-20 g) were purchased from The Jackson Laboratory (Bar Harbor, Me.). All experimental protocols in this study were approved by the Animal Care Committee of the University Health Network (Toronto, Ontario, Canada) in accordance with the policies established in the Guide to the Care and Use of Experimental Animals prepared by the Canadian Council of Animal Care. For each study, the DTX was formulated in a Tween80/ethanol/saline (20:13:67) solution (4 mg DTX/mL), and sterile filtered. The Cellax particles were adjusted to 4, 7.5 or 15 mg DTX/mL in saline and sterile filtered.
Tissues from mice (organs, bones, and tumors) were rinsed with saline and fixed in 10% formalin for 2 days, followed by storage in 70% ethanol. Preparation of tissues into slides was performed at the Toronto General Hospital Pathology Research Program lab (Toronto, ON). […] Prepared slides were analyzed on an Aperio Scanner at the Advanced Optical Microscopy Facility (AOMF) at the Princess Margaret Hospital (Toronto, ON). […] For TUNEL, Ki67, and CD31 stained samples, brown pixels were counted with the ImageScope Positive Pixel Count algorithm. For each tumor or organ analyzed, three tissue sections were each divided into three equal regions, generating n=9 data points. Image analysis output were positive pixel counts divided by the area analyzed. […]

Series [4] concerns EMT-6 flank tumors. As to the kind of experiment: Subcutaneous flank tumor study, EMT-6. Type of series: in vivo.
From the text: as §2
Tissues from mice (organs, bones, and tumors) were rinsed with saline and fixed in 10% formalin for 2 days, followed by storage in 70% ethanol. […] Prepared slides were analyzed on an Aperio Scanner at the Advanced Optical Microscopy Facility (AOMF) at the Princess Margaret Hospital (Toronto, ON). […] For TUNEL, Ki67, and CD31 stained samples, brown pixels were counted with the ImageScope Positive Pixel Count algorithm. For each tumor or organ analyzed, three tissue sections were each divided into three equal regions, generating n=9 data points. Image analysis output were positive pixel counts divided by the area analyzed.
EMT-6 cells were cultured as described previously. […] The tumor size was measured by a caliper, and body weight was monitored. […]

Series [5] has as its system LL/2 flank tumors. As to the kind of experiment: Subcutaneous flank tumor study, LL/2. Type of series: in vivo.
Series [6] relates to EMT-6 cells (i.v. inoculated). The series can be described thus: Metastatic tumor study, i.v. EMT-6 cells. The class given is in vivo, BALB/c mice.
From the text: as §2
Healthy BALB/c mice received an i.v. dose of EMT-6 cells (in supplement free DMEM media) via tail vein injection (50 uL, 2.5×10^5 cell/mL), and one day following received a dose of Cellax (40 mg DTX/kg), 40 mg/kg DTX, or saline (n=10/group). A second dose (20 mg/kg DTX) was administered on day 7 post-cell injection. Mice were sacrificed when >20% body weight loss was recorded, or at the first signs of behavioral or mobility dysfunction. The lungs, heart, liver, kidneys, spleen, femurs, and brain were harvested for histological analysis. A Kaplan Meier plot of survival probability was generated from the survival data.

Series [7] has as its system PAN02 cells (murine pancreatic cancer). As to the kind of experiment: Intraperitoneal tumor model study, PAN02. Type of series: in vivo, C57/BL6 mice. Conditions: PAN02 i.p. model.
From the text: as §2
PAN02 cells (murine pancreatic cancer) were cultured in RPMI 1640 supplemented with 10% FBS (Invitrogen), penicillin (100 U/ml) and streptomycin (100 μg/ml) (Invitrogen), and pyruvate (1 mM). Prior to inoculation, the cells were lifted from the culture plates with TrypLE Express (Invitrogen), and re-suspended in supplement free (no FBS, no antibiotics) RPMI media. The PAN02 cells (5×10^6 cells/mL, 0.5 mL) were injected into the intraperitoneal space of C57/BL6 mice. One day post-administration of the cells, the mice (n=3 per group) were treated with DTX (40 mg/kg), Cellax (40 mg DTX eqv/kg), or saline. Mice were sacrificed when >20% body weight loss was recorded, or at the first signs of behavioral or mobility dysfunction.

The conditions of series [8]: doses of 210, 150, 300, and 233 mg/m^2 for PTX, NK105, Genexol, Opaxio respectively; cited from earlier work.

What is called IC50 is the point on the concentration scale where inhibition reaches its midpoint. As usually defined, the MTD is the highest dose tested that stayed within the study's limit of toxicity. Turning to `CC(=O)O[C@@]12CO[C@@H]1C[C@H](O)[C@@]1(C)C(=O)[C@H](O)C3=C(C)[C@@H](OC(=O)[C@H](O)[C@@H](NC(=O)OC(C)(C)C)c4ccccc4)C[C@@](O)([C@@H](OC(=O)c4ccccc4)[C@H]21)C3(C)C` [DTX, Docetaxel], the IC50 is 6 nM in series [1] (EMT6, 48 h, dose in four parts over two days, read-out: IC50 DTX (nM) Metronomic); 80 nM in series [1] (EMT6, single (bolus) dose, XTT, Cellax as DTX content, read-out: IC50); 12 nM in series [2] (48 h, dose in four parts over two days, read-out: IC50 DTX (nM) Metronomic); 767 nM in series [2] (single (bolus) dose, XTT, Cellax as DTX content, read-out: IC50). In addition, the MTD at 7 days in series [3] stood at 40 mg/kg. Also, the “effect on tumor growth” value is on record as “minor (not significant) effect on tumour growth” in series [4] (EMT-6 flank model, single dose 40 mg/kg DTX (eqv), Cellax p<0.001 vs controls, p<0.05 vs DTX) and “did not alter tumor growth characteristics” in series [5] (LL/2 flank model, single dose 40 mg/kg DTX (eqv)). Besides, the “tumor histology: apoptosis (TUNEL), cell replication (Ki67), angiogenesis (CD31)” value in series [4] (EMT-6 tumors, 40 mg/kg, compared to DTX treated tumors and controls) is given as “caused necrosis/apoptosis”. The “tumor histology: necrosis (H&E) and TUNEL staining” value in series [5] (LL/2 tumors) was “positive TUNEL staining was minimal”. This molecule also had a median survival time in series [6] (40 mg/kg day 1, 20 mg/kg day 7, n=10/group) of 9 days. Besides, the “onset of weight loss” value in series [6] (metastatic EMT-6 model, 40 mg/kg) was 6 days. Also, in series [6] (metastatic EMT-6 model, mice affected per group of 10), the “signs of disease stress: parelsis (leg movements), piloerection” value was 4/10. Further, the survival result in series [7] (40 mg/kg) was “survival was significantly extended”. Moreover, the “weight loss or disease symptoms” value in series [7] (40 mg/kg (DTX eqv), n=3 per group) is “did not exhibit signs of weight loss or disease symptoms”.

With `Nc1ccn([C@@H]2O[C@H](CO)[C@@H](O)C2(F)F)c(=O)n1` [gemcitabine], the benefit of treatment entry in series [7] (120 mg/kg) was “did not confer significantly increased benefits”.

Regarding `CC(=O)O[C@H]1C(=O)[C@@]2(C)[C@H]([C@H](OC(=O)c3ccccc3)[C@]3(O)C[C@H](OC(=O)[C@H](O)[C@@H](NC(=O)c4ccccc4)c4ccccc4)C(C)=C1C3(C)C)[C@]1(OC(C)=O)CO[C@@H]1C[C@@H]2O` [PTX, paclitaxel], the half life in series [8] is 13.3 h.

Values taken from patent publication US8591877B2, “Cellulose-based nanoparticles for drug delivery” (Ontario Institute for Cancer Research, priority 2011, dated 2013).
